Assay results from publication PMC11266212, “Effect of Clarithromycin, a Strong CYP3A and P-glycoprotein Inhibitor, on the Pharmacokinetics of Edoxaban in Healthy Volunteers and the Evaluation of the Drug Interaction with Other Oral Factor Xa Inhibitors by a Microdose Cocktail Approach” (Cardiovascular Drugs and Therapy, 2023).
Like-named read-outs stand apart in the source and are kept apart here.

Assays:
clinical = conditions: for GMR of dose-normalized AUC0-∞, microdose vs therapeutic dose: edoxaban 50 μg vs 60 mg; for AUC: AUC0-∝
Protocol: (§1) The study was an open-label, two-period, one-sequence DDI trial in healthy volunteers to assess the impact of clarithromycin on the pharmacokinetics of 60 mg edoxaban, given as a tablet, and the effect of clarithromycin on apixaban (25 μg), edoxaban (50 μg), and rivaroxaban (25 μg) administered as an oral microdose cocktail. Concurrently, the effect of clarithromycin on CYP3A activity was quantified by means of an oral midazolam microdose (30 μg) (Fig. 1).
(§2) CYP3A4 activity was quantified using a microdose of midazolam administered as an oral solution, which was administered directly before administering the FXaI [19, 20]. Clarithromycin was dosed to inhibition steady-state (7-day treatment prior to evaluation of any perpetrator effects and treatment continued until last blood sampling) and administered at a dose of 500 mg b.i.d. to ensure reliable inhibition of hepatic CYP3A4 (mechanism-based inhibition), while maximum CYP3A4 inhibition in the gut wall was expected to occur earlier. Single-dose pharmacokinetics of the FXaI were assessed at baseline and on day 8 (microdosed FXaI cocktail) and day 9 (edoxaban 60 mg) of clarithromycin treatment.
(§3) Venous plasma samples for pharmacokinetic FXaI analyses were collected before and 0.25, 0.5, 0.75, 1, 1.5, 2, 2.5, 3, 3.5, 4, 5, 6, 8, 10, 12, 24 (last sampling after microdoses), and 48 h (last sampling for edoxaban 60 mg) after drug administration. Midazolam pharmacokinetics were assessed using a limited sampling strategy with sampling at 2, 2.5, 3, and 4 h post dose. All samples were processed within 20 min, and plasma was stored at ≤ – 20 °C until analysis. Coagulation effects (international normalized ratio (INR) and activated partial thromboplastin time (aPTT)) were assessed at expected FXaI peak plasma concentrations (3 h post dose) in the accredited central laboratory of the hospital.
(§4) Apixaban, edoxaban, midazolam, and rivaroxaban plasma concentrations were quantified using validated highly sensitive ultra-performance liquid chromatography–tandem mass spectrometry (UPLC-MS/MS) methods with accuracy and precision values of less than or equal to ± 15 % [22, 23]. The corresponding lower limits of quantification were 1 pg/ml for microdosed midazolam, 2.5 pg/ml for all microdosed FXaI, and 1 ng/ml for regular doses of edoxaban.
(§5) Non-compartmental analyses of the FXaI and midazolam pharmacokinetics were performed using Phoenix WinNonlin 8.3 (Certara, Inc., Princeton, NJ, USA). Linear modelling of AUC ratios was done using the R software environment in version 4.0.4 (R Foundation for Statistical Computing, Vienna, Austria). Maximum plasma concentration (Cmax) and the time to reach Cmax (Tmax) were directly obtained from the pharmacokinetic data. The area under the concentration-time curve from 0 to infinity (AUC0-∞) was determined using the log-linear trapezoidal rule and by adding the extrapolated part until infinity. Half-life (t1/2) is calculated as ln(2)/λz , where the elimination rate constant λz was estimated using log-linear regression of the elimination phase. The apparent oral clearance (Cl/F) was calculated as dose/AUC0--∞ . CYP3A4 activity was determined using a limited sampling strategy using the midazolam AUC2-4 as described earlier. […] Exposure changes are described by evaluating the geometric mean ratio (paired t-test on log-transformed values) of AUC0-∞ and Cmax at baseline and under the influence of steady-state clarithromycin (90 % CI). The AUC2-4 of midazolam was evaluated at multiple time points using a repeated-measures analysis of variance after logarithmic transformation.

[1] = cited from earlier work
CYP = conditions: cited from earlier work
[2] = cited from earlier work; remark: listed apart in the source
[3] = Safety: adverse events in the trial; type: in vivo, human (healthy volunteers); conditions: while taking clarithromycin 500 mg b.i.d.; 12 participants
[4] = design: method as in PMID 32511684; conditions: during clarithromycin compared to azithromycin, patients mainly anticoagulated with FXaI; cited from earlier work
[5] = Pharmacokinetics of a single 60 mg edoxaban dose before and during clarithromycin; conditions: for Tmax / Vd: geometric mean; for Vd: Vz
Protocol: as §1, §2, §3, §4, §5

[6] = test system: coagulation markers (aPTT, INR); experiment: Coagulation effects (aPTT, INR) 3 h post dose; type: in vivo, human (healthy volunteers); conditions: for INR, mean / aPTT, mean: 180 min after administration
Protocol: as §3

CYP3A = CYP3A activity by oral midazolam microdose (AUC2-4, limited sampling); type: in vivo, human (healthy volunteers); conditions: human, plasma, 30 ug, oral microdose 30 μg
Protocol: as §1
CYP3A4 activity was quantified using a microdose of midazolam administered as an oral solution, which was administered directly before administering the FXaI [19, 20]. […] Single-dose pharmacokinetics of the FXaI were assessed at baseline and on day 8 (microdosed FXaI cocktail) and day 9 (edoxaban 60 mg) of clarithromycin treatment.
as §3, with “All samples were processed within 20 min, and plasma was stored at ≤ – 20 °C until analysis.” left out, “hospital. […]” for “hospital.”

P-gp = test system: P-gp; design: method as in PMID 12848773, PMID 18987624; conditions: digoxin given intravenously and orally; cited from earlier work
[7] = human, in vivo, po, geometric mean
[8] = regular rivaroxaban dose with clarithromycin, ref 16 (Mueck et al. 2013)
[9] = oral microdose cocktail, at clarithromycin steady-state
[10] = oral microdose cocktail, baseline
[11] = regular apixaban dose with clarithromycin, ref 24 (Garonzik et al. 2019)
[12] = edoxaban 60 mg, clarithromycin steady state vs baseline
[13] = human, in vivo, 60 mg, edoxaban 60 mg, at clarithromycin steady-state
[14] = human, in vivo, 60 mg, edoxaban 60 mg, baseline
[15] = oral microdose cocktail, clarithromycin steady state vs baseline
[16] = edoxaban 60 mg with clarithromycin

O=C(NC[C@H]1CN(c2ccc(N3CCOCC3=O)cc2)C(=O)O1)c1ccc(Cl)s1 [Rivaroxaban, rivaroxaban]
Cl / F, geometric mean (clinical; human, in vivo, po): 9.0 L/h
Tmax (clinical; human, in vivo, po): 0.917 h
Vz, geometric mean (clinical; human, in vivo, po): 85 L
t1/2, geometric mean (clinical; human, in vivo, po): 6.3 h
Cmax (clinical; [7]): 0.65 ng/mL
AUC0-∝ geometric mean ratio [1, 8]: 1.54
Cmax geometric mean ratio [1, 8]: 1.40
increase of concentrations (exposure) by clarithromycin ([1]; rivaroxaban): 50–100%
magnitude of drug interaction (exposure increase) with clarithromycin ([1]; therapeutic doses of rivaroxaban): 54%
CYP contribution to overall clearance (CYP): 32%
exposure increase caused by verapamil or diltiazem [2]: approximately 40%
exposure change with ketoconazole ([2]; therapeutic dose of rivaroxaban): 158%

CC[C@H]1OC(=O)[C@H](C)[C@@H](O[C@H]2C[C@@](C)(OC)[C@@H](O)[C@H](C)O2)[C@H](C)[C@@H](O[C@@H]2O[C@H](C)C[C@H](N(C)C)[C@H]2O)[C@](C)(OC)C[C@@H](C)C(=O)[C@H](C)[C@@H](O)[C@]1(C)O [clarithromycin]
adverse event dysgeusia, number of participants [3]: 9
increase of the risk of hospital admission due to major bleeding events [4]: 71%

COc1ccc(-n2nc(C(N)=O)c3c2C(=O)N(c2ccc(N4CCCCC4=O)cc2)CC3)cc1 [Apixaban, apixaban]
Cl / F, geometric mean (clinical; human, in vivo, po): 4.9 L/h
Vz, geometric mean (clinical; human, in vivo, po): 52 L
t1/2, geometric mean (clinical; human, in vivo, po): 7.1 h
Cmax (clinical; [7]): 0.653 ng/mL
Tmax, geometric mean (clinical; [9]): 2.23 h
Tmax, geometric mean (clinical; [10]): 1.9 h
increase of concentrations (exposure) by clarithromycin ([1]; apixaban): 60%
AUC0-∝ geometric mean ratio [1, 11]: 1.60
Cmax geometric mean ratio [1, 11]: 1.30
CYP contribution to overall clearance (CYP): 21%
exposure increase caused by verapamil or diltiazem [2]: approximately 40%
exposure change with ketoconazole ([2]; therapeutic dose of apixaban): 99%

CN1CCc2nc(C(=O)N[C@@H]3C[C@@H](C(=O)N(C)C)CC[C@@H]3NC(=O)C(=O)Nc3ccc(Cl)cn3)sc2C1 [Edoxaban, edoxaban]
increase of edoxaban exposure by clarithromycin ([5]; edoxaban 60 mg): 53%
Cl / F, geometric mean ([5]; edoxaban 60 mg, at clarithromycin steady-state): 34 L/h
Cmax, geometric mean ([5]; edoxaban 60 mg, at steady-state clarithromycin): 258 ng/mL
Cl / F, geometric mean ([5]; edoxaban 60 mg, baseline): 51 L/h
AUC0-∝ geometric mean ratio [5, 12]: 1.53
Cmax geometric mean ratio [5, 12]: 1.27
Cmax ([5]; human, in vivo, 60 mg): 203 ng/mL
Tmax [5, 13]: 1.67 h
Tmax [5, 14]: 1.27 h
Vd [5, 13]: 361 L
Vd [5, 14]: 594 L
AUC ([5]; human, in vivo, po, 60 mg): 1170 ng·h/mL
GMR of dose-normalized AUC0-∞, microdose vs therapeutic dose (clinical; at baseline): 1.08
GMR of dose-normalized AUC0-∞, microdose vs therapeutic dose (clinical; at steady-state of clarithromycin): 1.43
AUC (clinical; human, in vivo, po, geometric mean, oral microdose cocktail (25 μg apixaban, 50 μg edoxaban, 25 μg rivaroxaban), baseline): 1.05 ng·h/mL
AUC (clinical; human, in vivo, po, geometric mean, oral microdose cocktail, at steady-state clarithromycin (day 8)): 2.13 ng·h/mL
Cmax (clinical; human, in vivo, po, geometric mean, oral microdose cocktail, at steady-state clarithromycin): 0.341 ng/mL
Cmax (clinical; human, in vivo, po, geometric mean, oral microdose cocktail, baseline): 0.153 ng/mL
Tmax (clinical; human, in vivo, po, Tmax, geometric mean, oral microdose cocktail, at clarithromycin steady-state): 1.72 h
Tmax (clinical; human, in vivo, po, Tmax, geometric mean, oral microdose cocktail, baseline): 1.17 h
Cl / F, geometric mean (clinical; [9]): 23 L/h
Vz, geometric mean (clinical; [9]): 217 L
Cl / F, geometric mean (clinical; [10]): 48 L/h
Vz, geometric mean (clinical; [10]): 399 L
AUC0-∝ geometric mean ratio (clinical; [15]): 2.03
Cmax geometric mean ratio (clinical; [15]): 2.22
INR, change during clarithromycin, GMR ([6]; edoxaban 60 mg): 1.39
INR, mean ([6]; edoxaban 60 mg alone): 1.23
aPTT, mean ([6]; edoxaban 60 mg alone): 33.4
INR, mean [6, 16]: 1.43
aPTT, mean [6, 16]: 40.2
contribution of CYP3A to the overall metabolic clearance (CYP): 1%
effect of selective inhibition of CYP3A (by voriconazole) on pharmacokinetics [2]: does not affect its pharmacokinetics
exposure change with ketoconazole ([2]; therapeutic dose of edoxaban): 87%

Cc1ncc2n1-c1ccc(Cl)cc1C(c1ccccc1F)=NC2 [Midazolam, midazolam]
AUC (CYP3A; at clarithromycin steady-state): 0.672 ng·h/mL
AUC (CYP3A; baseline): 0.107 ng·h/mL

C[C@H]1O[C@@H](O[C@H]2[C@@H](O)C[C@H](O[C@H]3[C@@H](O)C[C@H](O[C@H]4CC[C@@]5(C)[C@H](CC[C@@H]6[C@@H]5C[C@@H](O)[C@]5(C)[C@@H](C7=CC(=O)OC7)CC[C@]65O)C4)O[C@@H]3C)O[C@@H]2C)C[C@H](O)[C@@H]1O [digoxin]
reduction of renal tubular secretion by oral clarithromycin (P-gp): 15%
